From US20130060013A1, “Compounds useful for treating neurodegenerative disorders” (SATORI PHARMACEUTICALS, INC., priority 2011, published 2013)

Key:
Assay type in all cases: cell-based
Conditions in all cases: Homo sapiens, compound 5 hours at 37° C., 1% DMSO, percent vehicle fit to 4 parameter curve
Aβ-38 = Aβ-38 level in conditioned media of 2B7 cells (MSD 3-PLEX ELISA)
Protocol: (§1) Assays were conducted to determine the ability of a Compound of Formula I to modulate […], and Aβ-38.
(§2) Plates with capture antibodies were blocked for 1-2 hours at room temperature with 150 μL of the manufactures blocking reagent.
(§3) Cultured 2B7 cells in 96 well plate with 250 uL of media per well until confluent;
(§4) Prepared serial dilutions of compounds in DMSO at 100× the final desired concentration;
(§5) Washed wells with 2B7 cells 1× with 250 uL of media;
(§6) Diluted DMSO stocks 1:100 into media:
(§7) Added 250 μL of media containing compounds (1% DMSO) to wells with 2B7 cells for 5 hours at 37° C.
(§8) Diluted conditioned media: 1 part media with 1% DMSO and 1 part blocking buffer;
(§9) 150 μL of the 250 μL of conditioned media were used.
(§10) Standard Curve Sample Prep:
(§11) Prepared per manufacturer's protocol (see above)
(§12) Seven point standard curve samples were prepared that contained Aβ-42, Aβ-40, and Aβ-38. The highest concentration of Aβ-42 and Aβ-38 was 3,000 pg/mL and the highest concentration of Aβ-40 was 10,000 pg/mL. Subsequent serial dilutions were 1:3 and the final composition of each sample was 1 part blocking buffer and 1 part cell medium containing 1% DMSO.
(§13) Overnight Sample Incubation:
(§14) Blocked plates are washed 5× with MSD wash buffer with a plate washer
(§15) 25 uL of detection antibody and blocker G reagent in MSD blocking solution is added
(§16) 25 uL of samples (1 part conditioned media containing 1% DMSO and 1 part MSD blocking buffer) are then added.
(§17) plates are incubated overnight at 4 degrees C. or 2 hours at room temp
(§18) Wash wells 5× with MSD wash buffer
(§19) Added 150 μL 2×MSD read buffer
(§20) A-Beta peptide levels for each peptide are calculated from the standard curve using the MSD software provided with the MSD 2400 Imager. Percent vehicle values for each compound dosage were then calculated and fit to a 4 parameter curve generating IC50 values.

Aβ-42 = Aβ-42 level in conditioned media of 2B7 cells (MSD 3-PLEX ELISA)
Protocol: as §1, §2, §3, §4, §5, §6, §7, §8, §9, §10, §11, §12, §13, §14, §15, §16, §17, §18, §19, §20

Aβ-40 = Aβ-40 level in conditioned media of 2B7 cells (MSD 3-PLEX ELISA)
Protocol: as §1
Human (6E10) Ab 3-PLEX elisa kits were purchased from Meso Scale Discovery Labs, 9328 Gaither Road, Gaithersburg, Md. 20877 (Catalog Number K15148E-3). Plates with capture antibodies were blocked for 1-2 hours at room temperature with 150 μL of the manufactures blocking reagent.
as §3, §4, §5, §6, §7, §8, §9, §10, §11, §12, §13, §14, §15, §16, §17, §18, §19, §20

SMILES	IC50 (Aβ-38)	IC50 (Aβ-42)	IC50 (Aβ-40)
CCO[C@@H]([C@H]1C[C@@H](C)[C@H]2[C@H](O1)[C@H](O)[C@@]1(C)[C@@H]3CC[C@H]4C(C)(C)[C@@H](O[C@H]5CN(C(=O)CNS(=O)(=O)C(F)(F)F)CCO5)CCC45C[C@@]35CC[C@]21C)C(C)(C)O (stereo partly drawn)	< 1000 nM	< 1000 nM	1 to 10 µM
CCO[C@@H]([C@H]1C[C@@H](C)[C@H]2[C@H](O1)[C@H](O)[C@@]1(C)[C@@H]3CC[C@H]4C(C)(C)[C@@H](O[C@H]5CN(C6(C)COC6)CCO5)CCC45C[C@@]35CC[C@]21C)C(C)(C)O (stereo partly drawn)	< 1000 nM	< 1000 nM	1 to 10 µM
CO[C@@H]([C@H]1C[C@@H](C)[C@H]2[C@H](O1)[C@H](O)[C@@]1(C)[C@@H]3CC[C@H]4C(C)(C)[C@@H](O[C@H]5CN(C6CNC6)CCO5)CCC45C[C@@]35CC[C@]21C)C(C)(C)O (stereo partly drawn)	< 1000 nM	< 1000 nM	1 to 10 µM
CO[C@@H]([C@H]1C[C@@H](C)[C@H]2[C@H](O1)[C@H](O)[C@@]1(C)[C@@H]3CC[C@H]4C(C)(C)[C@@H](OC5CN(C6CN(C)C6)CCO5)CCC45C[C@@]35CC[C@]21C)C(C)(C)O (stereo partly drawn)	< 1000 nM	< 1000 nM	1 to 10 µM
CCO[C@@H]([C@H]1C[C@@H](C)[C@H]2[C@H](O1)[C@H](O)[C@@]1(C)[C@@H]3CC[C@H]4C(C)(C)[C@@H](OC(=O)[C@@H]5CCCN5)CCC45C[C@@]35CC[C@]21C)C(C)(C)O (stereo partly drawn)	< 1000 nM	< 1000 nM	1 to 10 µM
CCO[C@@H]([C@H]1C[C@@H](C)[C@H]2[C@H](O1)[C@H](O)[C@@]1(C)[C@@H]3CC[C@H]4C(C)(C)[C@@H](OC(=O)[C@@H]5CCCN5C)CCC45C[C@@]35CC[C@]21C)C(C)(C)O (stereo partly drawn)	< 1000 nM	< 1000 nM	1 to 10 µM
CCO[C@@H]([C@H]1C[C@@H](C)[C@H]2[C@H](O1)[C@H](O)[C@@]1(C)[C@@H]3CC[C@H]4C(C)(C)[C@@H](OC(=O)C5CCN5C(=O)OC(C)(C)C)CCC45C[C@@]35CC[C@]21C)C(C)(C)O (stereo partly drawn)	1000 to 10000 nM	< 1000 nM	1 to 10 µM
CCO[C@@H]([C@H]1C[C@@H](C)[C@H]2[C@H](O1)[C@H](O)[C@@]1(C)[C@@H]3CC[C@H]4C(C)(C)[C@@H](OC(=O)C5CCN5)CCC45C[C@@]35CC[C@]21C)C(C)(C)O (stereo partly drawn)	< 1000 nM	< 1000 nM	1 to 10 µM
CCO[C@@H]([C@H]1C[C@@H](C)[C@H]2[C@H](O1)[C@H](O)[C@@]1(C)[C@@H]3CC[C@H]4C(C)(C)[C@@H](OC(=O)C5CCN5C)CCC45C[C@@]35CC[C@]21C)C(C)(C)O (stereo partly drawn)	1000 to 10000 nM	< 1000 nM	> 10 µM
CCO[C@@H]([C@H]1C[C@@H](C)[C@H]2[C@H](O1)[C@H](O)[C@@]1(C)[C@@H]3CC[C@H]4C(C)(C)[C@@H](O[C@H]5CN(CC6CN(C(C)=O)C6)CCO5)CCC45C[C@@]35CC[C@]21C)C(C)(C)O (stereo partly drawn)	1000 to 10000 nM	< 1000 nM	1 to 10 µM
CCO[C@@H]([C@H]1C[C@@H](C)[C@H]2[C@H](O1)[C@H](O)[C@@]1(C)[C@@H]3CC[C@H]4C(C)(C)[C@@H](OC(=O)[C@H]5COCCN5)CCC45C[C@@]35CC[C@]21C)C(C)(C)O (stereo partly drawn)	< 1000 nM	< 1000 nM	1 to 10 µM
CCO[C@@H]([C@H]1C[C@@H](C)[C@H]2[C@H](O1)[C@H](O)[C@@]1(C)[C@@H]3CC[C@H]4C(C)(C)[C@@H](OC(=O)[C@@H]5COCCN5)CCC45C[C@@]35CC[C@]21C)C(C)(C)O (stereo partly drawn)	< 1000 nM	< 1000 nM	1 to 10 µM
CCO[C@@H]([C@H]1C[C@@H](C)[C@H]2[C@H](O1)[C@H](O)[C@@]1(C)[C@@H]3CC[C@H]4C(C)(C)[C@@H](OC(=O)c5cccnc5)CCC45C[C@@]35CC[C@]21C)C(C)(C)O (stereo partly drawn)	< 1000 nM	< 1000 nM	> 10 µM
CCO[C@@H]([C@H]1C[C@@H](C)[C@H]2[C@H](O1)[C@H](O)[C@@]1(C)[C@@H]3CC[C@H]4C(C)(C)[C@@H](OC(=O)[C@H]5CNCCO5)CCC45C[C@@]35CC[C@]21C)C(C)(C)O (stereo partly drawn)	< 1000 nM	< 1000 nM	1 to 10 µM
CCO[C@@H]([C@H]1C[C@@H](C)[C@H]2[C@H](O1)[C@H](O)[C@@]1(C)[C@@H]3CC[C@H]4C(C)(C)[C@@H](OC(=O)[C@H]5COCCN5CCOC)CCC45C[C@@]35CC[C@]21C)C(C)(C)O (stereo partly drawn)	< 1000 nM	< 1000 nM	1 to 10 µM
CCO[C@@H]([C@H]1C[C@@H](C)[C@H]2[C@H](O1)[C@H](O)[C@@]1(C)[C@@H]3CC[C@H]4C(C)(C)[C@@H](OC(=O)[C@H]5CCCN5)CCC45C[C@@]35CC[C@]21C)C(C)(C)O (stereo partly drawn)	< 1000 nM	< 1000 nM	1 to 10 µM
CCO[C@@H]([C@H]1C[C@@H](C)[C@H]2[C@H](O1)[C@H](O)[C@@]1(C)[C@@H]3CC[C@H]4C(C)(C)[C@@H](OC(=O)C5CN(CCOC)C5)CCC45C[C@@]35CC[C@]21C)C(C)(C)O (stereo partly drawn)	< 1000 nM	< 1000 nM	1 to 10 µM
CCO[C@@H]([C@H]1C[C@@H](C)[C@H]2[C@H](O1)[C@H](O)[C@@]1(C)[C@@H]3CC[C@H]4C(C)(C)[C@@H](OC(=O)[C@H]5CCCN5C)CCC45C[C@@]35CC[C@]21C)C(C)(C)O (stereo partly drawn)	< 1000 nM	< 1000 nM	1 to 10 µM
CCO[C@@H]([C@H]1C[C@@H](C)[C@H]2[C@H](O1)[C@H](O)[C@@]1(C)[C@@H]3CC[C@H]4C(C)(C)[C@@H](OC(=O)[C@@H]5COCCN5C(C)C)CCC45C[C@@]35CC[C@]21C)C(C)(C)O (stereo partly drawn)	1000 to 10000 nM	< 1000 nM	> 10 µM
CCO[C@@H]([C@H]1C[C@@H](C)[C@H]2[C@H](O1)[C@H](O)[C@@]1(C)[C@@H]3CC[C@H]4C(C)(C)[C@@H](OC(=O)[C@@H]5C[C@@H](O)CN5)CCC45C[C@@]35CC[C@]21C)C(C)(C)O (stereo partly drawn)	< 1000 nM	< 1000 nM	1 to 10 µM
CCO[C@@H]([C@H]1C[C@@H](C)[C@H]2[C@H](O1)[C@H](O)[C@@]1(C)[C@@H]3CC[C@H]4C(C)(C)[C@@H](OC(=O)[C@@H]5C[C@@H](O)CN5C)CCC45C[C@@]35CC[C@]21C)C(C)(C)O (stereo partly drawn)	< 1000 nM	< 1000 nM	1 to 10 µM
CCO[C@@H]([C@H]1C[C@@H](C)[C@H]2[C@H](O1)[C@H](O)[C@@]1(C)[C@@H]3CC[C@H]4C(C)(C)[C@@H](O[C@H]5CN(CCO)CCO5)CCC45C[C@@]35CC[C@]21C)C(C)(C)O (stereo partly drawn)	< 1000 nM	< 1000 nM	1 to 10 µM
CCO[C@@H]([C@H]1C[C@@H](C)[C@H]2[C@H](O1)[C@H](O)[C@@]1(C)[C@@H]3CC[C@H]4C(C)(C)[C@@H](OC(=O)C5CNC5)CCC45C[C@@]35CC[C@]21C)C(C)(C)O (stereo partly drawn)	< 1000 nM	< 1000 nM	1 to 10 µM
CCO[C@@H]([C@H]1C[C@@H](C)[C@H]2[C@H](O1)[C@H](O)[C@@]1(C)[C@@H]3CC[C@H]4C(C)(C)C(O[C@H]5CN(CCNC(=O)CCOCCOCCNC(=O)CCCCC6SC[C@@H]7NC(=O)N[C@H]67)CCO5)CC[C@@]45CC35CC[C@]21C)C(C)(C)O (stereo partly drawn)	1000 to 10000 nM	1000 to 10000 nM	> 10 µM
CCO[C@@H]([C@H]1C[C@@H](C)[C@H]2[C@H](O1)[C@H](O)[C@@]1(C)[C@@H]3CC[C@H]4C(C)(C)C(O[C@H]5CN(CCCNCCCOCCOCCOCCCNC(=O)CCCCC6SC[C@@H]7NC(=O)N[C@H]67)CCO5)CC[C@@]45CC35CC[C@]21C)C(C)(C)O (stereo partly drawn)	< 1000 nM	< 1000 nM	1 to 10 µM
CCO[C@@H]([C@H]1C[C@@H](C)[C@H]2[C@H](O1)[C@H](O)[C@@]1(C)[C@@H]3CC[C@H]4C(C)(C)C(O[C@H]5CN(CCNC(=O)CCC6(C)N=N6)CCO5)CC[C@@]45CC35CC[C@]21C)C(C)(C)O (stereo partly drawn)	< 1000 nM	< 1000 nM	> 10 µM
CCO[C@@H]([C@H]1C[C@@H](C)[C@H]2[C@H](O1)[C@H](O)[C@@]1(C)[C@@H]3CC[C@H]4C(C)(C)C(O[C@H]5CN(CCNCCCOCCOCCOCCCNC(=O)CCCCC6SC[C@@H]7NC(=O)N[C@H]67)CCO5)CC[C@@]45CC35CC[C@]21C)C(C)(C)O (stereo partly drawn)	< 1000 nM	< 1000 nM	1 to 10 µM
